Assay results as given in ChEMBL document CHEMBL5390249, “Analysis of structure-activity relationship of indol-3-yl-N-phenylcarbamic amides as potent STING inhibitors” (Bioorg Med Chem, 2023).
The source made the active and inactive calls. No cut-off for these calls is given here.

Columns and labels:
[1] = molecular target: Stimulator of interferon genes protein (Homo sapiens) (UniProt Q86WV6); experiment: Inhibition of STING in human THP1-Dual KI-hSTING-R232 cells assessed as cGAMP-induced IRF luciferase expression at 1 uM incubated for 2 hrs by QUANTI-Luc reagent based luciferase reporter assay; type: cell-based
[2] = test system: Detroit 551; experiment: Cytotoxicity against human Detroit 551 cells assessed as reduction in cell viability by MTS assay; type: toxicity, cell-based

Sequence of Stimulator of interferon genes protein (Homo sapiens) (Q86WV6 whole entry): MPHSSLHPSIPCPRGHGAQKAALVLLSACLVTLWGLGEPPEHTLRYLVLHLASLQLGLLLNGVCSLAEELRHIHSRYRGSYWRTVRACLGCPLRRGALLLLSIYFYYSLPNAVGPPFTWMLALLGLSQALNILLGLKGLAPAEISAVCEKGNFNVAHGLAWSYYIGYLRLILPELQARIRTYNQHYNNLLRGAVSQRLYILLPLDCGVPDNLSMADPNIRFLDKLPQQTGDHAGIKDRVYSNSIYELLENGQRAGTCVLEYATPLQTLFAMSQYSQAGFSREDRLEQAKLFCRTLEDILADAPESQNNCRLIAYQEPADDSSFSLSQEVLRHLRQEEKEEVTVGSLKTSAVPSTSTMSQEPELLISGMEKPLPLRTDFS

Row | SMILES | inhibition [1] | Activity [2]
1 | COc1cccc(NC(=O)Nc2c[nH]c3ccccc23)c1 | Active | –
2 | Cc1ccc(NC(=O)Nc2c[nH]c3ccccc23)c(C)c1 | inactive | –
3 | Cc1cccc(NC(=O)Nc2c[nH]c3ccccc23)c1C | inactive | –
4 | Cc1ccccc1NC(=O)Nc1c[nH]c2ccccc12 | inactive | –
5 | O=C(Nc1ccc(Cl)cc1)Nc1c[nH]c2ccccc12 | – | Non-Toxic
6 | Cc1cccc(NC(=O)Nc2c[nH]c3ccccc23)c1 | Active | –
7 | O=C(Nc1ccc(C(F)(F)F)cc1)Nc1c[nH]c2ccccc12 | – | Non-Toxic
8 | NC(=O)c1ccc(NC(=O)Nc2c[nH]c3ccccc23)cc1 | inactive | –
9 | O=C(Nc1ccc(OC(F)(F)F)cc1)Nc1c[nH]c2ccccc12 | – | Non-Toxic
10 | Cc1ccc(NC(=O)Nc2c[nH]c3ccccc23)cc1Cl | – | Non-Toxic
11 | CCc1ccc(NC(=O)Nc2c[nH]c3ccccc23)cc1 | – | Non-Toxic
12 | O=C(Nc1ccc2c(c1)OCCO2)Nc1c[nH]c2ccccc12 | inactive | –
13 | CN(C)c1ccc(NC(=O)Nc2c[nH]c3ccccc23)cc1 | inactive | –
14 | COc1ccc(NC(=O)Nc2c[nH]c3ccccc23)cc1 | inactive | –
15 | CN(C(=O)Nc1c[nH]c2ccccc12)c1ccccc1 | inactive | –
16 | Cn1cc(NC(=O)Nc2ccc(C(N)=O)cc2)c2ccccc21 | inactive | –
17 | CCc1ccc(NC(=O)Nc2cn(C)c3ccccc23)cc1 | inactive | –
18 | CCc1ccccc1NC(=O)Nc1c[nH]c2ccccc12 | inactive | –
19 | O=C(Nc1c[nH]c2ccccc12)N1Cc2ccccc2C1 | inactive | –
20 | O=C(Nc1cccc(F)c1)Nc1c[nH]c2ccccc12 | Active | –
21 | Cn1cc(NC(=O)Nc2ccc(F)c(Cl)c2)c2ccccc21 | inactive | –
22 | Cn1cc(NC(=O)Nc2ccc(F)c(F)c2)c2ccccc21 | inactive | –
23 | Cn1cc(NC(=O)Nc2ccc(OC(F)(F)F)cc2)c2ccccc21 | inactive | –
24 | CC(=O)c1ccc(NC(=O)Nc2cn(C)c3ccccc23)cc1 | inactive | –
25 | O=C(Nc1cccc(Cl)c1)Nc1c[nH]c2ccccc12 | Active | –
26 | CC(C)c1ccc(NC(=O)Nc2c[nH]c3ccccc23)cc1 | – | Non-Toxic
